# According to US5441941A, “1,2-dihydroellipticines with activity against CNS specific cancer” (The United States of America as represented by the …, priority 1993, dated 1995):
# Legend:
# HCC-2998 = test: cells; settings: Homo sapiens
# SK-OV-3 = test: NCI in vitro screen, SRB percent growth, Ovarian Cancer
# OVCAR-5 = test: as above
# COLO 205 = test: NCI in vitro screen, SRB percent growth, Colon Cancer
# HOP-62 = test: NCI in vitro screen, SRB percent growth, Non-Small Cell Lung Cancer
# IGROV1 = test: NCI in vitro screen, SRB percent growth, Ovarian Cancer
# HCT-15 = test: NCI in vitro screen, SRB percent growth, Colon Cancer
# SK-MEL-28 = test: NCI in vitro screen, SRB percent growth, Melanoma
# SNB-78 = test: NCI in vitro screen, SRB percent growth, CNS Cancer
# LOX IMVI = test: NCI in vitro screen, SRB percent growth, Melanoma
# A549/ATCC = test: NCI in vitro screen, SRB percent growth, Non-Small Cell Lung Cancer
# ACHN = test: NCI in vitro screen, SRB percent growth, Renal Cancer
# RPMI-8226 = test: cells; settings: Homo sapiens
# OVCAR-8 = test: NCI in vitro screen, SRB percent growth, Ovarian Cancer
# SNB-19 = test: NCI in vitro screen, SRB percent growth, CNS Cancer
# HL-60 (TB) = test: NCI in vitro screen, SRB percent growth, Leukemia
# [1] = HCC 2998, read-out: Percent Growth
# [2] = Log10 Concentration -4.0, 100 µM
# [3] = Log10 Concentration -7.0, 0.1 µM
# [4] = RPMI-8226, read-out: Percent Growth
compound,measurement,setting,value
Cc1ccc2[nH]c3c(C)c4c(c(C)c3c2c1)CN(C)C=C4 [Formula XI],GI50,HCC-2998; HCC 2998,1.69 µM
same,CC50,"HCC-2998; HCC 2998, read-out: LC-50",7.89 µM
same,activity at 0.01 µM,HCC-2998; [1],105%
same,activity at 0.1 µM,HCC-2998; [1],108%
same,activity at 1 µM,HCC-2998; [1],84%
same,activity at 10 µM,HCC-2998; [1],-65%
same,activity at 100 µM,HCC-2998; [1],-91%
same,IC (TGI),"HCC-2998; HCC 2998, read-out: TGI",3.65 µM
same,Percent Growth,SK-OV-3; [2],-58%
same,Percent Growth,SK-OV-3; Log10 Concentration -5.0,-16%
same,Percent Growth,"SK-OV-3; Log10 Concentration -6.0, 1 µM",36%
same,Percent Growth,SK-OV-3; [3],59%
same,Percent Growth,SK-OV-3; Log10 Concentration -8.0,87%
same,TGI,SK-OV-3; PG=0,4.87 µM
same,GI50,SK-OV-3; PG=+50,0.25 µM
same,CC50,"SK-OV-3; read-out: LC-50, PG=-50",63.3 µM
same,Percent Growth,OVCAR-5; [2],-83%
same,Percent Growth,OVCAR-5; Log10 Concentration -5.0,19%
same,Percent Growth,"OVCAR-5; Log10 Concentration -6.0, 1 µM",97%
same,Percent Growth,OVCAR-5; [3],113%
same,Percent Growth,OVCAR-5; Log10 Concentration -8.0,108%
same,TGI,OVCAR-5; PG=0,15.2 µM
same,GI50,OVCAR-5; PG=+50,3.99 µM
same,CC50,"OVCAR-5; read-out: LC-50, PG=-50",47.4 µM
same,Percent Growth,COLO 205; [2],-28%
same,Percent Growth,COLO 205; Log10 Concentration -5.0,-23%
same,Percent Growth,"COLO 205; Log10 Concentration -6.0, 1 µM",24%
same,Percent Growth,COLO 205; [3],92%
same,Percent Growth,COLO 205; Log10 Concentration -8.0,119%
same,TGI,COLO 205; PG=0,3.2 µM
same,GI50,COLO 205; PG=+50,0.416 µM
same,CC50,"COLO 205; read-out: LC-50, PG=-50",> 100 µM
same,Percent Growth,HOP-62; [2],-89%
same,Percent Growth,HOP-62; Log10 Concentration -5.0,-39%
same,Percent Growth,"HOP-62; Log10 Concentration -6.0, 1 µM",11%
same,Percent Growth,HOP-62; [3],119%
same,Percent Growth,HOP-62; Log10 Concentration -8.0,121%
same,TGI,HOP-62; PG=0,1.64 µM
same,GI50,HOP-62; PG=+50,0.433 µM
same,CC50,"HOP-62; read-out: LC-50, PG=-50",16.3 µM
same,Percent Growth,IGROV1; [2],-73%
same,Percent Growth,IGROV1; Log10 Concentration -5.0,-15%
same,Percent Growth,"IGROV1; Log10 Concentration -6.0, 1 µM",30%
same,Percent Growth,IGROV1; [3],85%
same,Percent Growth,IGROV1; Log10 Concentration -8.0,97%
same,TGI,IGROV1; PG=0,4.71 µM
same,GI50,IGROV1; PG=+50,0.438 µM
same,CC50,"IGROV1; read-out: LC-50, PG=-50",39.9 µM
same,Percent Growth,HCT-15; [2],-87%
same,Percent Growth,HCT-15; Log10 Concentration -5.0,76%
same,Percent Growth,"HCT-15; Log10 Concentration -6.0, 1 µM",95%
same,Percent Growth,HCT-15; [3],102%
same,Percent Growth,HCT-15; Log10 Concentration -8.0,111%
same,TGI,HCT-15; PG=0,29.3 µM
same,GI50,HCT-15; PG=+50,14.5 µM
same,CC50,"HCT-15; read-out: LC-50, PG=-50",59.6 µM
same,Percent Growth,SK-MEL-28; [2],-95%
same,Percent Growth,SK-MEL-28; Log10 Concentration -5.0,-61%
same,Percent Growth,"SK-MEL-28; Log10 Concentration -6.0, 1 µM",108%
same,Percent Growth,SK-MEL-28; [3],115%
same,Percent Growth,SK-MEL-28; Log10 Concentration -8.0,114%
same,TGI,SK-MEL-28; PG=0,4.37 µM
same,GI50,SK-MEL-28; PG=+50,2.21 µM
same,CC50,"SK-MEL-28; read-out: LC-50, PG=-50",8.62 µM
same,Percent Growth,SNB-78; [2],-75%
same,Percent Growth,SNB-78; Log10 Concentration -5.0,-33%
same,Percent Growth,"SNB-78; Log10 Concentration -6.0, 1 µM",38%
same,Percent Growth,SNB-78; [3],128%
same,Percent Growth,SNB-78; Log10 Concentration -8.0,131%
same,TGI,SNB-78; PG=0,3.41 µM
same,GI50,SNB-78; PG=+50,0.738 µM
same,CC50,"SNB-78; read-out: LC-50, PG=-50",25.2 µM
same,Percent Growth,LOX IMVI; [2],-81%
same,Percent Growth,LOX IMVI; Log10 Concentration -5.0,26%
same,Percent Growth,"LOX IMVI; Log10 Concentration -6.0, 1 µM",82%
same,Percent Growth,LOX IMVI; [3],94%
same,Percent Growth,LOX IMVI; Log10 Concentration -8.0,98%
same,TGI,LOX IMVI; PG=0,17.4 µM
same,GI50,LOX IMVI; PG=+50,3.67 µM
same,CC50,"LOX IMVI; read-out: LC-50, PG=-50",51.4 µM
same,Percent Growth,A549/ATCC; [2],-66%
same,Percent Growth,A549/ATCC; Log10 Concentration -5.0,-15%
same,Percent Growth,"A549/ATCC; Log10 Concentration -6.0, 1 µM",33%
same,Percent Growth,A549/ATCC; [3],86%
same,Percent Growth,A549/ATCC; Log10 Concentration -8.0,96%
same,TGI,A549/ATCC; PG=0,4.9 µM
same,GI50,A549/ATCC; PG=+50,0.469 µM
same,CC50,"A549/ATCC; read-out: LC-50, PG=-50",48.5 µM
same,Percent Growth,ACHN; [2],-92%
same,Percent Growth,ACHN; Log10 Concentration -5.0,30%
same,Percent Growth,"ACHN; Log10 Concentration -6.0, 1 µM",81%
same,Percent Growth,ACHN; [3],96%
same,Percent Growth,ACHN; Log10 Concentration -8.0,101%
same,TGI,ACHN; PG=0,17.6 µM
same,GI50,ACHN; PG=+50,4.02 µM
same,CC50,"ACHN; read-out: LC-50, PG=-50",45.1 µM
same,GI50,RPMI-8226; RPMI-8226,6.81 µM
same,CC50,"RPMI-8226; RPMI-8226, read-out: LC-50",> 100 µM
same,activity at 0.01 µM,RPMI-8226; [4],109%
same,activity at 0.1 µM,RPMI-8226; [4],106%
same,activity at 1 µM,RPMI-8226; [4],103%
same,activity at 10 µM,RPMI-8226; [4],39%
same,activity at 100 µM,RPMI-8226; [4],-27%
same,IC (TGI),"RPMI-8226; RPMI-8226, read-out: TGI",39.3 µM
same,Percent Growth,OVCAR-8; [2],-95%
same,Percent Growth,OVCAR-8; Log10 Concentration -5.0,-5%
same,Percent Growth,"OVCAR-8; Log10 Concentration -6.0, 1 µM",37%
same,Percent Growth,OVCAR-8; [3],81%
same,Percent Growth,OVCAR-8; Log10 Concentration -8.0,89%
same,TGI,OVCAR-8; PG=0,7.69 µM
same,GI50,OVCAR-8; PG=+50,0.516 µM
same,CC50,"OVCAR-8; read-out: LC-50, PG=-50",31.8 µM
same,Percent Growth,SNB-19; [2],-57%
same,Percent Growth,SNB-19; Log10 Concentration -5.0,-51%
same,Percent Growth,"SNB-19; Log10 Concentration -6.0, 1 µM",48%
same,Percent Growth,SNB-19; [3],97%
same,Percent Growth,SNB-19; Log10 Concentration -8.0,104%
same,TGI,SNB-19; PG=0,3.04 µM
same,GI50,SNB-19; PG=+50,0.897 µM
same,CC50,"SNB-19; read-out: LC-50, PG=-50",9.78 µM
same,Percent Growth,HL-60 (TB); [2],-30%
same,Percent Growth,HL-60 (TB); Log10 Concentration -5.0,25%
same,Percent Growth,"HL-60 (TB); Log10 Concentration -6.0, 1 µM",102%
same,Percent Growth,HL-60 (TB); Log10 Concentration -8.0,111%
same,TGI,HL-60 (TB); PG=0,28.7 µM
same,GI50,HL-60 (TB); PG=+50,4.8 µM
same,CC50,"HL-60 (TB); read-out: LC-50, PG=-50",> 100 µM
